Data reported in ChEMBL document CHEMBL1131172 (J Med Chem, 1998).

Experiments:
[1] = biological target: T1, Bifunctional dihydrofolate reductase-thymidylate synthase (Toxoplasma gondii, UniProt Q07422)
T1 sequence (Q07422 whole entry): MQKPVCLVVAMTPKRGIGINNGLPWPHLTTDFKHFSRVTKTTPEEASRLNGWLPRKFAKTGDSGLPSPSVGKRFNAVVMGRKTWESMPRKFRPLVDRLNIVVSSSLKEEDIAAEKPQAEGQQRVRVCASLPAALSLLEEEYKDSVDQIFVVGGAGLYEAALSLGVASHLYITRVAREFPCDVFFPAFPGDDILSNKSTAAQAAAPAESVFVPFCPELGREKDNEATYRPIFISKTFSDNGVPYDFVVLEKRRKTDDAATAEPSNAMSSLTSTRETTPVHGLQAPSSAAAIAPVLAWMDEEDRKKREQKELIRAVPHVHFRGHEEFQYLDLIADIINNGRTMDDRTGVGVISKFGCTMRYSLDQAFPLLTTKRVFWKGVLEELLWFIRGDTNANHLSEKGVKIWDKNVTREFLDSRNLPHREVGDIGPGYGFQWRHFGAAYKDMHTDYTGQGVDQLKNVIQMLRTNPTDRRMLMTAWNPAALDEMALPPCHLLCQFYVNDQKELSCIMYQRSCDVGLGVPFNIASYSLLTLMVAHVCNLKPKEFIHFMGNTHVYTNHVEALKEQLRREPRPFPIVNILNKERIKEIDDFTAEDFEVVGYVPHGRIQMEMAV
Description: Inhibitory activity against dihydrofolate reductase (DHFR) from Toxoplasma gondii

Dihydrofolate reductase [2] = biological target: T2, Dihydrofolate reductase (Pneumocystis carinii, UniProt P16184)
T2 sequence (P16184 whole entry): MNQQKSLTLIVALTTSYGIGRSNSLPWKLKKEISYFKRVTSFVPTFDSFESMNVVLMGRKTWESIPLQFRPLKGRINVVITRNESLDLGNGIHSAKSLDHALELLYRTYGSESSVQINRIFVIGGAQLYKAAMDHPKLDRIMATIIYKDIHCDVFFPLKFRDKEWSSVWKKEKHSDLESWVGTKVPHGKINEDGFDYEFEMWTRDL
Description: Inhibitory activity against dihydrofolate reductase (DHFR) from Pneumocystis carinii

Dihydrofolate reductase [3] = biological target: T3, Dihydrofolate reductase (Rattus norvegicus, UniProt Q920D2)
T3 sequence (Q920D2 whole entry): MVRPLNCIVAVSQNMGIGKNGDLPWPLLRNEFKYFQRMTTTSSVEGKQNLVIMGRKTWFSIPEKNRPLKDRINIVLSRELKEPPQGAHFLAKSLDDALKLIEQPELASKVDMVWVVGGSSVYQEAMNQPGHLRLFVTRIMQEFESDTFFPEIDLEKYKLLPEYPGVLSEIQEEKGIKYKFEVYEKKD
Description: Inhibitory activity against dihydrofolate reductase (DHFR) from rat liver

786-0 = assay: inhibition of the growth of renal cancer(786-0) cell line; format: functional; conditions: Homo sapiens
A549 [4] = assay: inhibition of the growth of non-small-cell lung cancer (A549/ATCC) cell line; format: functional; conditions: Homo sapiens
CAKI-1 = assay: inhibition of the growth of renal cancer(CAKI-1) cell line; format: functional; conditions: Homo sapiens
DU-145 = assay: inhibition of the growth of prostate cancer(DU-145) cell line; format: functional; conditions: Homo sapiens
HCT-15 [5] = assay: inhibition of the growth of colon cancer(HCT-15) cell line; format: functional; conditions: Homo sapiens
HCT-116 [6] = assay: inhibition of the growth of colon cancer(HCT116) cell line; format: functional; conditions: Homo sapiens
IGROV-1 [7] = assay: inhibition of the growth of ovarian cancer(IGROVI) cell line; format: functional; conditions: Homo sapiens
KM12 = assay: inhibition of the growth of colon cancer(KM-12) cell line; format: functional; conditions: Homo sapiens
MOLT-4 = assay: inhibition of the growth of leukemia (MOLT-4) cell line; format: functional; conditions: Homo sapiens
NCI/ADR-RES [8] = assay: inhibition of the growth of breast cancer (MCF7/ADR-RES) cell line; format: functional; conditions: Homo sapiens
M14 = assay: inhibition of the growth of melanoma cancer (M14) cell line; format: functional; conditions: Homo sapiens
MDA-N [9] = assay: inhibition of the growth of breast cancer(MDA-N) cell line; format: functional; conditions: Homo sapiens
MDA-MB-435 [10] = assay: inhibition of the growth of breast cancer (MDA-MB-435) cell line; format: functional; conditions: Homo sapiens
MCF7 = assay: inhibition of the growth of breast cancer (MCF-7) cell line; format: functional; conditions: Homo sapiens
NCI-H460 [11] = assay: inhibition of the growth of non-small-cell lung cancer (NCI-H460) cell line; format: functional; conditions: Homo sapiens
NCI-H522 = assay: inhibition of the growth of non-small-cell lung cancer (NCI-H522) cell line; format: functional; conditions: Homo sapiens
NCI-H322M = assay: inhibition of the growth of non-small-cell lung cancer (NCI-H322M) cell line; format: functional; conditions: Homo sapiens
OVCAR-8 [12] = assay: inhibition of the growth of ovarian cancer(OVCAR-8) cell line; format: functional; conditions: Homo sapiens
NCI-H23 = assay: inhibition of the growth of non-small-cell lung cancer (NCI-H23) cell line; format: functional; conditions: Homo sapiens
RPMI-8226 [13] = assay: inhibition of the growth of leukemia (RPMI-8226) cell line; format: functional; conditions: Homo sapiens
SF-268 = assay: inhibition of the growth of CNS cancer(SF-268) cell line; format: functional; conditions: Homo sapiens
SF-295 [14] = assay: inhibition of the growth of CNS cancer(SF-295) cell line; format: functional; conditions: Homo sapiens
SNB-19 = assay: inhibition of the growth of CNS cancer(SNB-19) cell line; format: functional; conditions: Homo sapiens
SF-539 = assay: inhibition of the growth of CNS cancer(SF-539) cell line; format: functional; conditions: Homo sapiens
SR = assay: inhibition of the growth of leukemia(SR) cell line; format: functional; conditions: Homo sapiens
SK-MEL-5 [15] = assay: inhibition of the growth of melanoma cancer (SK-MEL-5) cell line; format: functional; conditions: Homo sapiens
UO-31 [16] = assay: inhibition of the growth of renal cancer(UO-31) cell line; format: functional; conditions: Homo sapiens
UO-31 [17] = assay: Inhibition of the growth of renal cancer(UO-31) cell line at 0.01 uM; format: functional; conditions: Homo sapiens
A549 [18] = assay: Inhibition of the growth of non-small-cell lung cancer (A549/ATCC) cell line at 0.01 uM; format: functional; conditions: Homo sapiens
HCT-15 [19] = assay: Inhibition of the growth of colon cancer(HCT-15) cell line at 0.01 uM; format: functional; conditions: Homo sapiens
HCT-116 [20] = assay: Inhibition of the growth of colon cancer(HCT116) cell line at 0.01 uM; format: functional; conditions: Homo sapiens
NCI/ADR-RES [21] = assay: Inhibition of the growth of breast cancer (MCF7/ADR-RES) cell line at 0.01 uM; format: functional; conditions: Homo sapiens
MDA-N [22] = assay: Inhibition of the growth of breast cancer(MDA-N) cell line at 0.01 uM; format: functional; conditions: Homo sapiens
MDA-MB-435 [23] = assay: Inhibition of the growth of breast cancer (MDA-MB-435) cell line at 0.01 uM; format: functional; conditions: Homo sapiens
NCI-H460 [24] = assay: Inhibition of the growth of non-small-cell lung cancer (NCI-H460) cell line at 0.01 uM; format: functional; conditions: Homo sapiens
RPMI-8226 [25] = assay: Inhibition of the growth of leukemia (RPMI-8226) cell line at 0.01 uM; format: functional; conditions: Homo sapiens
SF-295 [26] = assay: Inhibition of the growth of CNS cancer(SF-295) cell line at 0.01 uM; format: functional; conditions: Homo sapiens
SK-MEL-5 [27] = assay: Inhibition of the growth of melanoma cancer (SK-MEL-5) cell line at 0.01 uM; format: functional; conditions: Homo sapiens
IGROV-1 [28] = assay: Inhibition of the growth of ovarian cancer(IGROVI) cell line at 0.01 uM; format: functional; conditions: Homo sapiens
OVCAR-8 [29] = assay: Inhibition of the growth of ovarian cancer(OVCAR-8) cell line at 0.01 uM; format: functional; conditions: Homo sapiens

For `COc1cc(Nc2ccc3nc(N)nc(N)c3n2)cc(OC)c1OC`, the IC50 [1] was 2400 nM, the IC50 (Dihydrofolate reductase [2]) was 25900 nM and the IC50 (Dihydrofolate reductase [3]) was 3200 nM.

`Nc1nc(N)c2nc(Nc3ccccc3)ccc2n1` was tested, and the GI50 (786-0) was 890 nM, the GI50 (A549 [4]) was 640 nM and the GI50 (CAKI-1) was 3580 nM. The GI50 (DU-145) was 4990 nM, the GI50 (HCT-15 [5]) was 850 nM and the GI50 (HCT-116 [6]) was 510 nM. The GI50 (IGROV-1 [7]) was 3270 nM, the GI50 (KM12) was 5940 nM and the GI50 (MOLT-4) was 2180 nM. It also gave a GI50 (NCI/ADR-RES [8]) of 2690 nM, a GI50 (M14) of 1070 nM and a GI50 (MDA-N [9]) of 680 nM. It also gave a GI50 (MDA-MB-435 [10]) of 570 nM, a GI50 (MCF7) of 6450 nM and a GI50 (NCI-H460 [11]) of 430 nM. It also gave a GI50 (NCI-H522) of 4260 nM, a GI50 (NCI-H322M) of 8020 nM and a GI50 (OVCAR-8 [12]) of 990 nM. The GI50 (NCI-H23) was 3670 nM, the GI50 (RPMI-8226 [13]) was 670 nM and the GI50 (SF-268) was 6050 nM. It also gave a GI50 (SF-295 [14]) of 1430 nM, a GI50 (SNB-19) of 1570 nM and a GI50 (SF-539) of 2950 nM. The GI50 (SR) was 2910 nM, the GI50 (SK-MEL-5 [15]) was 830 nM and the GI50 (UO-31 [16]) was less than 10 nM. For the same compound, the inhibition at 0.01 µM (UO-31 [17]) was 57%, the IC50 [1] was 300 nM and the IC50 (Dihydrofolate reductase [2]) was 8300 nM. It also gave an IC50 (Dihydrofolate reductase [3]) of 430 nM.

Work on `COc1ccc(S(=O)(=O)c2ccc3nc(N)nc(N)c3n2)cc1OC` yielded an IC50 [1] of 940 nM, an IC50 (Dihydrofolate reductase [2]) of 2700 nM and an IC50 (Dihydrofolate reductase [3]) of 880 nM.

`COc1ccccc1Nc1ccc2nc(N)nc(N)c2n1` was tested, and the IC50 [1] was 460 nM and the IC50 (Dihydrofolate reductase [3]) was 260 nM.

`CN(c1ccccc1)c1ccc2nc(N)nc(N)c2n1` gave a GI50 (786-0) of 220 nM, a GI50 (A549 [4]) of less than 10 nM and an inhibition at 0.01 µM (A549 [18]) of 65%. It also gave a GI50 (CAKI-1) of 10 nM, a GI50 (DU-145) of 120 nM and an inhibition at 0.01 µM (HCT-15 [19]) of 66%. For the same compound, the GI50 (HCT-15 [5]) was less than 10 nM, the GI50 (HCT-116 [6]) was less than 10 nM and the inhibition at 0.01 µM (HCT-116 [20]) was 80%. It also gave a GI50 (IGROV-1 [7]) of less than 10 nM, a GI50 (KM12) of 190 nM and a GI50 (MOLT-4) of 60 nM. For the same compound, the GI50 (NCI/ADR-RES [8]) was less than 10 nM, the inhibition at 0.01 µM (NCI/ADR-RES [21]) was 83% and the GI50 (M14) was 10 nM. For the same compound, the GI50 (MDA-N [9]) was less than 10 nM, the inhibition at 0.01 µM (MDA-N [22]) was 68% and the inhibition at 0.01 µM (MDA-MB-435 [23]) was 73%. The GI50 (MDA-MB-435 [10]) was less than 10 nM, the GI50 (MCF7) was 140 nM and the GI50 (NCI-H460 [11]) was less than 10 nM. For the same compound, the GI50 (NCI-H522) was 60 nM, the GI50 (NCI-H322M) was 70 nM and the GI50 (OVCAR-8 [12]) was less than 10 nM. It also gave an inhibition at 0.01 µM (NCI-H460 [24]) of 80%, a GI50 (NCI-H23) of 30 nM and an inhibition at 0.01 µM (RPMI-8226 [25]) of 59%. The GI50 (RPMI-8226 [13]) was less than 10 nM, the GI50 (SF-268) was 10 nM and the GI50 (SF-295 [14]) was less than 10 nM. The inhibition at 0.01 µM (SF-295 [26]) was 59%, the GI50 (SNB-19) was 40 nM and the GI50 (SF-539) was less than 10 nM. For the same compound, the GI50 (SR) was 50 nM, the GI50 (SK-MEL-5 [15]) was less than 10 nM and the inhibition at 0.01 µM (SK-MEL-5 [27]) was 59%. For the same compound, the GI50 (UO-31 [16]) was 30 nM, the inhibition at 0.01 µM (IGROV-1 [28]) was 53% and the inhibition at 0.01 µM (OVCAR-8 [29]) was 91%. The IC50 [1] was 2.2 nM, the IC50 (Dihydrofolate reductase [2]) was 99.5 nM and the IC50 (Dihydrofolate reductase [3]) was 1.3 nM.
